The test system of this assay is Nrf2 transcription factor (GST ARE luciferase reporter in AREc32 cells). In words: AREc32 luciferase reporter assay. In kind it is cell-based, human. To be noted: EC2×: concentration required to increase GST ARE luciferase reporter activity by 2-fold, 19 hours. The source says: A. AREc32 Luciferase Reporter Assay The AREc32 luciferase reporter assay allows for quantitative assessment of the endogenous activity of the Nrf2 transcription factor in cultured mammalian cells. AREc32 cells are derived from MCF-7 human breast carcinoma cells that were stably transfected with a reporter construct that contains the firefly luciferase gene located downstream of eight copies of the rat GSTA2 antioxidant response element (ARE) sequence (Wang et al., 2006; CXR Biosciences). Active NRF2 binds to the ARE sequences and increases expression of the firefly luciferase gene. […] Luciferase activity was determined using the ONE-Glo Luciferase assay (Promega). The luminescence signal was measured on a BMG Pherastar microplate reader. The mean luminescence value from test compound-treated wells was normalized to that from DMSO-treated wells and was represented as fold-induction. Data were analyzed using GraphPad Prism version 6.00 for Windows, GraphPad Software, La Jolla Calif. USA. A non-linear regression curve with log (agonist) vs. response using a variable slope was used to fit the data. […] EC2× values were interpolated from the curve.
In the case of `COc1nc(OC)c2c(n1)[C@]1(C)C=C(C#N)C(=O)[C@H](C)[C@H]1CC2` [T1], the “HRF2 ARE 2×” value worked out at 487 nM. Turning to `COc1cc(-c2nc(OC)c3c(n2)[C@]2(C)C=C(C#N)C(=O)[C@H](C)[C@H]2CC3)ccn1` [T2], the “HRF2 ARE 2×” value worked out at 247 nM. The same measure for `COc1nc(-c2ccnc(C)c2)nc2c1CC[C@@H]1[C@@H](C)C(=O)C(C#N)=C[C@@]21C` [T3]: 232 nM. Under `COc1nc(-c2ccncc2C)nc2c1CC[C@@H]1[C@@H](C)C(=O)C(C#N)=C[C@@]21C` [T4] stands 449 nM; under `COc1nc(-c2ccncc2)nc2c1CC[C@@H]1[C@@H](C)C(=O)C(C#N)=C[C@@]21C` [T5], 365 nM. The same measure for `COc1nc(-c2ccnc(F)c2)nc2c1CC[C@@H]1[C@@H](C)C(=O)C(C#N)=C[C@@]21C` [T6]: 341 nM; for `COc1nc(-c2cccnc2)nc2c1CC[C@@H]1[C@@H](C)C(=O)C(C#N)=C[C@@]21C` [T7]: 388 nM. Regarding `C[C@H]1C(O)=C(C#N)C[C@@]2(C)c3nc(-c4ccncc4)nc(-c4ccccc4)c3CC[C@H]12` [T13], the “HRF2 ARE 2×” value is on record as above 2000 nM. Under `C[C@H]1C(=O)C(C#N)=C[C@@]2(C)c3nc(-c4ccncc4)nc(-c4ccccc4)c3CC[C@H]12` [T14] stands 281 nM; under `C[C@H]1C(=O)[C@@]2(C#N)O[C@H]2[C@@]2(C)c3nc(-c4ccncc4)nc(-c4ccccc4)c3CC[C@H]12` [T15], 738 nM; under `C[C@H]1C(=O)C(C(N)=O)=C[C@@]2(C)c3nc(-c4ccncc4)nc(-c4ccccc4)c3CC[C@H]12` [T16], 1000 nM. In the case of `Cc1ccc(S(=O)(=O)Oc2nc(-c3ccncc3)nc3c2CC[C@@H]2[C@@H](C)C(=O)C(C#N)=C[C@@]32C)cc1` [T18], the “HRF2 ARE 2×” value is on record as 381 nM. Turning to `C[C@H]1C(=O)C(C#N)=C[C@@]2(C)c3nc(-c4ccccc4)nc(-c4ccccc4)c3CC[C@H]12` [T19], the “HRF2 ARE 2×” value was found to be 741 nM. Under `C[C@H]1C(=O)C(C#N)=C[C@@]2(C)c3nc(-c4ccc(C(F)(F)F)cc4)nc(-c4ccccc4)c3CC[C@H]12` [T20] stands 608 nM. The same measure for `C[C@H]1C(=O)C(C#N)=C[C@@]2(C)c3nc(-c4ccncc4)nc(-c4ccc(CO)cc4)c3CC[C@H]12` [T21]: 443 nM. The same measure for `C[C@H]1C(=O)C(C#N)=C[C@@]2(C)c3ncnc(-c4ccccc4)c3CC[C@H]12` [T22]: 90 nM; for `C[C@H]1C(=O)C(C#N)=C[C@@]2(C)c3nc(-c4ccncc4)nc(-c4ccc(C(F)(F)F)cc4)c3CC[C@H]12` [T24]: 171 nM; for `C[C@H]1C(=O)C(C#N)=C[C@@]2(C)c3nc(-c4ccncc4)nc(-c4cccnc4)c3CC[C@H]12` [T25]: 449 nM. Take `C[C@H]1C(=O)C(C#N)=C[C@@]2(C)c3nc(-c4ccncc4)nc(-c4cccc(C(F)(F)F)c4)c3CC[C@H]12` [T26]: the “HRF2 ARE 2×” value stood at 267 nM. The same measure for `Cc1ccc(-c2nc(-c3ccncc3)nc3c2CC[C@@H]2[C@@H](C)C(=O)C(C#N)=C[C@@]32C)cc1` [T27]: 181 nM; for `C[C@H]1C(=O)C(C#N)=C[C@@]2(C)c3nc(-c4ccncc4)nc(-c4ccc(Cl)cc4)c3CC[C@H]12` [T28]: 141 nM; for `C[C@H]1C(=O)C(C#N)=C[C@@]2(C)c3nc(-c4ccncc4)nc(-c4ccncc4)c3CC[C@H]12` [T29]: 484 nM. Under `COc1ccc(-c2nc(-c3ccncc3)nc3c2CC[C@@H]2[C@@H](C)C(=O)C(C#N)=C[C@@]32C)cc1` [T30] stands 136 nM.

For `C[C@H]1C(=O)C(C#N)=C[C@@]2(C)c3nc(-c4ccncc4)nc(-c4ccc(Cl)c(Cl)c4)c3CC[C@H]12` [T31], the “HRF2 ARE 2×” value was 186 nM. The same measure for `C[C@H]1C(=O)C(C#N)=C[C@@]2(C)c3nc(N)nc(-c4ccccc4)c3CC[C@H]12` [T34]: 469 nM; for `C[C@H]1C(=O)C(C#N)=C[C@@]2(C)c3nc(NC(=O)C4CCCCC4)nc(-c4ccccc4)c3CC[C@H]12` [T35]: 575 nM; for `C[C@H]1C(=O)C(C#N)=C[C@@]2(C)c3nc(-c4ccncc4)nc(Cc4ccccc4)c3CC[C@H]12` [T36]: 484 nM. Under `C[C@H]1C(=O)C(C#N)=C[C@@]2(C)c3nc(-c4ccnc5ccccc45)nc(-c4ccccc4F)c3CC[C@H]12` [T37] stands 351 nM; under `Cc1cc(-c2nc(-c3ccc(F)cc3)c3c(n2)[C@]2(C)C=C(C#N)C(=O)[C@H](C)[C@H]2CC3)ccn1` [T50], 256 nM. Under `Cc1cc(-c2nc(-c3ccccc3F)c3c(n2)[C@]2(C)C=C(C#N)C(=O)[C@H](C)[C@H]2CC3)ccn1` [T51] stands 364 nM. `Cc1cnccc1-c1nc(-c2ccccc2F)c2c(n1)[C@]1(C)C=C(C#N)C(=O)[C@H](C)[C@H]1CC2` [T56]: the “HRF2 ARE 2×” value amounted to 193 nM.

For the compound `C[C@H]1C(=O)C(C#N)=C[C@@]2(C)c3nc(-c4ccc5ncccc5c4)nc(-c4ccccc4F)c3CC[C@H]12` [T60], the “HRF2 ARE 2×” value was 380 nM. The same measure for `C[C@H]1C(=O)C(C#N)=C[C@@]2(C)c3nc(-c4cn(C)c5ncccc45)nc(-c4ccccc4F)c3CC[C@H]12` [T72]: 374 nM; for `C[C@H]1C(=O)C(C#N)=C[C@@]2(C)c3nc(-c4ccccc4F)nc(-c4ccccc4F)c3CC[C@H]12` [T81]: 705 nM; for `C[C@H]1C(=O)C(C#N)=C[C@@]2(C)c3nc(-c4ccnc(CO)c4)nc(-c4ccccc4F)c3CC[C@H]12` [T82]: 480 nM. Under `C[C@H]1C(=O)C(C#N)=C[C@@]2(C)c3nc(-c4ccnc(CF)c4)nc(-c4ccccc4F)c3CC[C@H]12` [T83] stands 484 nM; under `Cc1ccc(-c2nc(-c3ccccc3F)c3c(n2)[C@]2(C)C=C(C#N)C(=O)[C@H](C)[C@H]2CC3)cn1` [T88], 177 nM. Under `C[C@H]1C(=O)C(C#N)=C[C@@]2(C)c3nc(N4CCN(C)CC4)nc(-c4ccccc4F)c3CC[C@H]12` [T91] stands 552 nM; under `C[C@H]1C(=O)C(C#N)=C[C@@]2(C)c3nc(N4CCOCC4)nc(-c4ccccc4F)c3CC[C@H]12` [T92], 491 nM. As for `CC1(C)C(=O)C(C#N)=C[C@@]2(C)c3nc(-c4ccnc5ccccc45)nc(-c4ccccc4F)c3CC[C@H]12` [T118], the “HRF2 ARE 2×” value stood at 395 nM. The same measure for `CC1=C2CCc3c(-c4ccccc4F)nc(-c4ccnc5c(F)cccc45)nc3[C@]2(C)C=C(C#N)C1=O` [T128]: 1385 nM. Under `C[C@H]1C(=O)[C@@]2(C#N)O[C@H]2[C@@]2(C)c3nc(-c4ccnc5cc(F)ccc45)nc(-c4ccccc4F)c3CC[C@H]12` [T129] stands 697 nM; under `C[C@H]1C(=O)[C@@]2(C#N)O[C@H]2[C@@]2(C)c3nc(-c4ccnc(C5CC5)c4)nc(-c4ccccc4F)c3CC[C@H]12` [T130], 692 nM; under `CC1(C)C(=O)[C@@]2(C#N)O[C@H]2[C@@]2(C)c3nc(-c4ccnc5ccccc45)nc(-c4ccccc4F)c3CC[C@H]12` [T133], 1199 nM. On to `COc1nc(-c2ccncc2)nc2c1CC[C@@H]1[C@@H](C)C(=O)C=C[C@@]21C` [T134], for which the “HRF2 ARE 2×” value is reported as 3137 nM. The same measure for `COC(=O)[C@@]1(C)C(=O)C=C[C@@]2(C)c3nc(-c4ccncc4)nc(OC)c3CC[C@H]12` [T135]: above 2000 nM; for `CC(=O)N1CCN(c2nc(-c3ccccc3F)c3c(n2)[C@]2(C)C=C(C#N)C(=O)[C@H](C)[C@H]2CC3)CC1` [T139]: 222 nM; for `C=CC[C@H]1C(=O)C(C#N)=C[C@@]2(C)c3nc(-c4ccnc(C5CC5)c4)nc(-c4ccccc4F)c3CC[C@H]12` [T145]: 337 nM. On to `CCC[C@H]1C(=O)C(C#N)=C[C@@]2(C)c3nc(-c4ccnc(C5CC5)c4)nc(-c4ccccc4F)c3CC[C@H]12` [T146], for which the “HRF2 ARE 2×” value came to 447 nM. As to `C[C@H]1C(=O)C(C#N)=C[C@@]2(c3ccccc3)c3nc(-c4ccnc(C5CC5)c4)nc(-c4ccccc4F)c3CC[C@H]12` [T147], the “HRF2 ARE 2×” value was above 2000 nM. The same measure for `CCC[C@H]1C(=O)C(C#N)=C[C@@]2(C)c3nc(-c4ccnc5ccccc45)nc(-c4ccccc4F)c3CC[C@H]12` [T158]: 315 nM; for `CC(C)c1ccc(-c2nc(-c3ccnc4ccccc34)nc3c2CC[C@@H]2[C@@H](C)C(=O)C(C#N)=C[C@@]32C)cc1` [T161]: 158 nM.

As to `C[C@H]1C(=O)C(C#N)=C[C@@]2(C)c3nc(-c4ccnc5ccccc45)nc(-c4ccc(-c5ccccc5)cc4)c3CC[C@H]12` [T163], the “HRF2 ARE 2×” value came to 312 nM. The same measure for `CCC[C@@]12C=C(C#N)C(=O)[C@H](C)[C@H]1CCc1c(-c3ccccc3F)nc(-c3ccnc(C4CC4)c3)nc12` [T169]: 540 nM; for `C[C@H]1C(=O)C(C#N)=C[C@@]2(C)c3nc(-c4ccnc5ccccc45)nc(-c4ccccc4F)c3C[C@H]12` [T170]: 1222 nM; for `C[C@H]1C(=O)C(C#N)=C[C@@]2(C)c3nc(-c4ccnc(CF)c4)nc(-c4ccccc4F)c3C[C@H]12` [T171]: 1474 nM. Under `Cc1cc(-c2nc(-c3ccccc3F)c3c(n2)[C@]2(C)C=C(C#N)C(=O)[C@H](C)[C@H]2C3)c2cccc(F)c2n1` [T172] stands 998 nM.

The values are drawn from patent publication US11292781B2, “Pyrimidine tricyclic enone derivatives for inhibition of ROR-gamma and other uses” (REATA PHARMACEUTICALS, INC., priority 2016, dated 2022).
